Measurements as given in patent publication US20210128609A1, “ONCOLOGY TREATMENTS USING ZINC AGENTS” (XYLONIX IP HOLDINGS PTE. LTD., priority 2018, published 2021).

Tests used:
[1] = system: HeLa cells; conditions: 24h co-incubation with C004
From the text: See Goodall, M. L. et al., Developmental Cell, vol. 37, 337-349 (2016).

[2] = system: HCC-PDX xenograft; assay: HCC-PDX xenograft on Humanized NSG mice with TIL analysis (Example 11); type: in vivo; conditions: tumor infiltrating leukocytes
Protocol: Pembrolizumab 25 mg/mL (Keytruda®, Merck® KGa) was purchased from Merck®. Isotonic zinc sulfate gamma-polyglutamate solution was prepared at pH 7.0 using Tris buffer (1 mM), at elemental zinc concentration of 1 mg/mL and gamma-polyglutamate concentration of 10 mg/mL.
All manipulations and procedures with mice were approved by Agency for Science, Technology and Research (A*STAR) Institutional Animal Care and Use Committee (IACUC). The diet provided was irradiated TEKLAD GLOBAL 18% Protein Rodent Diet (2918). Mice were housed in a sterile environment and only accessed under a BSL2 hood. Mice were fed, given water and monitored daily for health, and cages were changed weekly. NSG mice were purchased from The Jackson Laboratory and bred in a specific pathogen free facility at the Biological Resource Centre (BRC) in A*STAR, Singapore. One to three days old NSG pups were irradiated with a 55 s exposure equaling 1.1 Gy and transplanted with 1×10^5 CD34+ human fetal liver cells by intra-hepatic injections. The mice were bled at 8 weeks post-transplantation to determine the fraction of human immune cell reconstitution. Reconstitution was calculated by [% hCD45+/(% hCD45++% mCD45+)]. […]
Tumor volume was measured in two dimensions (length and width) using calipers and the tumor volume was calculated using the formula: Tumor size=(length […])×½. […]

Compound | effect of inhibitor/agonist on C004-induced necrotic cytotoxicity (LDH release assay) [1] | TIL analysis, T cell involvement [2]
N.S=C(S)N1CCCC1 [PDTC] | did not cause a shift in the IC50 necrotic cytotoxicity | –
Pembrolizumab | – | solely dependent on CD8+ T cells
